Laboratory results as given in the supplement of paper PMC13380429.

Legend:
[1] = system: A549-ACE2; assay: drug-induced phospholipidosis relative to tamoxifen; higher = more phospholipidosis
[2] = system: A549-ACE2 infected with SARS-CoV-2; assay: morphology score (similarity to uninfected cells); higher = more like uninfected cells; conditions: 24 h
[3] = system: HepG2; assay: cell viability relative to DMSO; higher = less toxic; conditions: 72 h
[4] = system: U2OS; assay: as above; conditions: 72 h
[5] = system: Caco-2; assay: as above; conditions: 72 h
[6] = system: Calu-3; assay: as above; conditions: 72 h
[7] = system: Vero E6; assay: as above; conditions: 72 h
[8] = system: HepG2; assay: relative viability EC50 (midpoint between 100% and the lowest measured viability); higher = less toxic; conditions: 72 h
[9] = system: U2OS; assay: as above; conditions: 72 h
[10] = system: Caco-2; assay: as above; conditions: 72 h
[11] = system: Calu-3; assay: as above; conditions: 72 h
[12] = system: Vero E6; assay: as above; conditions: 72 h
[13] = system: A549-ACE2 infected with SARS-CoV-2; assay: SARS-CoV-2 infection rate relative to DMSO; higher = more infection; conditions: 24 h
[14] = system: HepG2; assay: drug sensitivity score (DSS) for viability; higher = more toxic; extreme values may be limits of the assay; conditions: 72 h
[15] = system: U2OS; assay: as above; conditions: 72 h
[16] = system: Caco-2; assay: as above; conditions: 72 h
[17] = system: Calu-3; assay: as above; conditions: 72 h
[18] = system: Vero E6; assay: as above; conditions: 72 h
[19] = system: A549-ACE2; assay: phospholipidosis EC50; higher = less potent phospholipidosis inducer
[20] = system: A549-ACE2 infected with SARS-CoV-2; assay: cell count relative to DMSO; higher = less toxic; conditions: 24 h

FC(F)(F)c1cc(CO[C@H]2CCCN[C@H]2c2ccccc2)cc(C(F)(F)F)c1
drug-induced phospholipidosis [%], [1]
Conditions | 0.3 µM | 0.833333 µM | 3.33333 µM | 6.66667 µM | 10 µM
24 h | 3.76 | 11.4 | 79.2 | 99.1 | 104
48 h | 4.92 | 7.68 | 61.5 | 89.2 | 97.2
72 h | 5.63 | 5.43 | 40.2 | 85 | 93

Conditions | SARS-CoV-2 infection rate [%] | cell count [%] | cell viability [%] | morphology score | phospholipidosis EC50 [µM]
[2], 0.3 µM | – | – | – | 0.12 | –
[2], 3 µM | – | – | – | 0.72 | –
[2], 10 µM | – | – | – | 0.92 | –
[2], 30 µM | – | – | – | 0.01 | –
[3], 1 nM | – | – | 104 | – | –
[3], 10 nM | – | – | 97.9 | – | –
[3], 100 nM | – | – | 97.8 | – | –
[3], 1000 nM | – | – | 107 | – | –
[3], 10000 nM | – | – | 88.4 | – | –
[4], 1 nM | – | – | 104 | – | –
[4], 10 nM | – | – | 101 | – | –
[4], 100 nM | – | – | 105 | – | –
[4], 1000 nM | – | – | 96.2 | – | –
[4], 10000 nM | – | – | 92.1 | – | –
[5], 1 nM | – | – | 108 | – | –
[5], 10 nM | – | – | 106 | – | –
[5], 100 nM | – | – | 91.1 | – | –
[5], 1000 nM | – | – | 87.2 | – | –
[5], 10000 nM | – | – | 83.6 | – | –
[6], 1 nM | – | – | 97.4 | – | –
[6], 10 nM | – | – | 97.6 | – | –
[6], 100 nM | – | – | 102 | – | –
[6], 1000 nM | – | – | 101 | – | –
[6], 10000 nM | – | – | 18.1 | – | –
[7], 1 nM | – | – | 96.7 | – | –
[7], 10 nM | – | – | 102 | – | –
[7], 100 nM | – | – | 102 | – | –
[7], 1000 nM | – | – | 99.1 | – | –
[7], 10000 nM | – | – | 89.4 | – | –
[13], 0.3 µM | 95 | – | – | – | –
[13], 3 µM | 57 | – | – | – | –
[13], 10 µM | 16 | – | – | – | –
[13], 30 µM | 42 | – | – | – | –
[19], 24 h | – | – | – | – | 2.17
[19], 48 h | – | – | – | – | 2.92
[19], 72 h | – | – | – | – | 3.8
[20], 0.3 µM | – | 100 | – | – | –
[20], 3 µM | – | 113 | – | – | –
[20], 10 µM | – | 121 | – | – | –
[20], 30 µM | – | 69 | – | – | –

Conditions | drug sensitivity score | relative viability EC50 [µM]
[8] | – | > 10
[9] | – | > 10
[10] | – | > 10
[11] | – | 3.27
[12] | – | > 10
[14] | 0 | –
[15] | 0 | –
[16] | 2.5 | –
[17] | 4.4 | –
[18] | 0 | –

NC(=O)c1cnc(N[C@@H]2CCCC[C@@H]2N)nc1Nc1cccc(-n2nccn2)c1
drug-induced phospholipidosis [%], [1]
Conditions | 0.3 µM | 0.833333 µM | 3.33333 µM | 6.66667 µM | 10 µM
24 h | 1.48 | 0.83 | 27.1 | 71.6 | 99.3
48 h | 4.57 | 2.08 | 16.9 | 73.9 | –
72 h | 3.49 | -1.55 | 12.3 | 69.8 | –

Conditions | SARS-CoV-2 infection rate [%] | cell count [%] | cell viability [%] | morphology score | phospholipidosis EC50 [µM]
[2], 0.3 µM | – | – | – | -0.18 | –
[2], 3 µM | – | – | – | 0.74 | –
[2], 10 µM | – | – | – | 0.43 | –
[2], 30 µM | – | – | – | 0.3 | –
[3], 1 nM | – | – | 101 | – | –
[3], 10 nM | – | – | 101 | – | –
[3], 100 nM | – | – | 99.1 | – | –
[3], 1000 nM | – | – | 95 | – | –
[3], 10000 nM | – | – | 31.7 | – | –
[4], 1 nM | – | – | 99.7 | – | –
[4], 10 nM | – | – | 96.8 | – | –
[4], 100 nM | – | – | 106 | – | –
[4], 1000 nM | – | – | 93.9 | – | –
[4], 10000 nM | – | – | 46.1 | – | –
[5], 1 nM | – | – | 94.6 | – | –
[5], 10 nM | – | – | 92.9 | – | –
[5], 100 nM | – | – | 91.5 | – | –
[5], 1000 nM | – | – | 93 | – | –
[5], 10000 nM | – | – | 44.7 | – | –
[6], 1 nM | – | – | 97.3 | – | –
[6], 10 nM | – | – | 94.5 | – | –
[6], 100 nM | – | – | 101 | – | –
[6], 1000 nM | – | – | 69.6 | – | –
[6], 10000 nM | – | – | 45.2 | – | –
[7], 1 nM | – | – | 98.9 | – | –
[7], 10 nM | – | – | 100 | – | –
[7], 100 nM | – | – | 91.1 | – | –
[7], 1000 nM | – | – | 98.4 | – | –
[7], 10000 nM | – | – | 81.6 | – | –
[13], 0.3 µM | 104 | – | – | – | –
[13], 3 µM | 32 | – | – | – | –
[13], 10 µM | 72 | – | – | – | –
[13], 30 µM | 121 | – | – | – | –
[19], 24 h | – | – | – | – | 6.68
[19], 48 h | – | – | – | – | 4.26
[20], 0.3 µM | – | 94 | – | – | –
[20], 3 µM | – | 101 | – | – | –
[20], 10 µM | – | 50 | – | – | –
[20], 30 µM | – | 1 | – | – | –

Conditions | drug sensitivity score | relative viability EC50 [µM]
[8] | – | 2.57
[9] | – | 2.24
[10] | – | 2.13
[11] | – | 0.917
[12] | – | > 10
[14] | 4.5 | –
[15] | 3.9 | –
[16] | 4.2 | –
[17] | 6.7 | –
[18] | 0.7 | –

O=C(CN1C2=NCCN2c2ccccc21)c1ccc(-c2ccccc2)cc1
drug-induced phospholipidosis [%], [1]
Conditions | 0.3 µM | 0.833333 µM | 3.33333 µM | 6.66667 µM | 10 µM | 30 µM
24 h | 2.47 | 0.7 | 26.4 | 46.9 | 91.5 | 84
48 h | 4.83 | 1.26 | 21.7 | 49.5 | 106 | 117
72 h | 2.9 | -4.28 | 15 | 36.6 | 99.6 | –

Conditions | SARS-CoV-2 infection rate [%] | cell count [%] | cell viability [%] | morphology score | phospholipidosis EC50 [µM]
[2], 0.3 µM | – | – | – | -0.08 | –
[2], 3 µM | – | – | – | 0.58 | –
[2], 10 µM | – | – | – | 0.78 | –
[2], 30 µM | – | – | – | -0.05 | –
[3], 1 nM | – | – | 98.7 | – | –
[3], 10 nM | – | – | 97.4 | – | –
[3], 100 nM | – | – | 95.1 | – | –
[3], 1000 nM | – | – | 98.4 | – | –
[3], 10000 nM | – | – | 74.1 | – | –
[4], 1 nM | – | – | 108 | – | –
[4], 10 nM | – | – | 104 | – | –
[4], 100 nM | – | – | 99.1 | – | –
[4], 1000 nM | – | – | 99.3 | – | –
[4], 10000 nM | – | – | 90.6 | – | –
[5], 1 nM | – | – | 99.6 | – | –
[5], 10 nM | – | – | 102 | – | –
[5], 100 nM | – | – | 110 | – | –
[5], 1000 nM | – | – | 102 | – | –
[5], 10000 nM | – | – | 88.8 | – | –
[6], 1 nM | – | – | 94.5 | – | –
[6], 10 nM | – | – | 99.2 | – | –
[6], 100 nM | – | – | 92.9 | – | –
[6], 1000 nM | – | – | 100 | – | –
[6], 10000 nM | – | – | 82.2 | – | –
[7], 1 nM | – | – | 103 | – | –
[7], 10 nM | – | – | 99.5 | – | –
[7], 100 nM | – | – | 98.8 | – | –
[7], 1000 nM | – | – | 95.4 | – | –
[7], 10000 nM | – | – | 83.4 | – | –
[13], 0.3 µM | 105 | – | – | – | –
[13], 3 µM | 67 | – | – | – | –
[13], 10 µM | 14 | – | – | – | –
[13], 30 µM | 51 | – | – | – | –
[19], 24 h | – | – | – | – | 5.39
[19], 48 h | – | – | – | – | 7.27
[19], 72 h | – | – | – | – | 8.25
[20], 0.3 µM | – | 101 | – | – | –
[20], 3 µM | – | 114 | – | – | –
[20], 10 µM | – | 118 | – | – | –
[20], 30 µM | – | 106 | – | – | –

Conditions | drug sensitivity score | relative viability EC50 [µM]
[9] | – | > 10
[10] | – | > 10
[11] | – | > 10
[12] | – | > 10
[14] | 1.2 | –
[15] | 0 | –
[16] | 0 | –
[17] | 0.4 | –
[18] | 0.8 | –
